Measurements as given in patent US20220218809A1, “IDO ACTIVITY AS A MARKER OF TUMOR IMMUNE ESCAPE AND IDO INHIBITORS AS A MEANS OF ENHANCING T CELLS RESPONSE TO ANTIGEN SPECIFIC VACCINE” (Wisconsin Alumni Research Foundation, priority 2018, published 2022).

How the values were obtained:
[1] = tested on: PAP-specific IFNγ-secreting T cells (PBMC); assay: IFNγ ELISPOT of patient PBMC stimulated with PAP antigen; format: cell-based, human; details: PBMC from 22 patients after vaccine and pembrolizumab; IDO enzyme 5 ug/mL or 1-MDT 2 mM; 48 hours; changes not statistically significant
Protocol: ELISPOT for measuring IFNγ release was performed as previously described (21). For these analyses, cryopreserved PBMC were thawed, and cultured with PAP protein antigen (Fitzgerald Industries, Acton, Mass.), media alone, or phytohemaglutinin (PHA). Stimulations were also conducted in the presence of IDO enzyme (5 ug/mL) or 1-MDT (2 mM). After 48 hours, plates were developed and spots enumerated using an automated ELISPOT reader (ImmunoSpot, CTL, Shaker Heights, Ohio).
IDO activity is associated with modest decrease in vaccine antigen-specific T-cell function.

T-cell activation = details: literature (ref 22); cited from earlier work
IDO activity = assay: Serum kynurenine-to-tryptophan (kyn:trp) ratio as measure of IDO activity in treated mCRPC patients; format: in vivo, human; details: patients with mCRPC
Protocol: Tryptophan and kynurenine concentrations were measured directly in serum samples using a clinically validated LC/MS method. All analysis was performed by Worldwide Clinical Trials (Morrisville, N.C.) by personnel blinded to the sample source.
Patients with prostate cancer treated with an anti-tumor vaccine and/or PD-1 develop increased IDO activity and expression. […] Because IDO is also an IFNγ-regulated gene, we questioned whether prostate cancer immunotherapy similarly elicited increases in IDO expression. We have recently reported the results of a trial in which patients with mCRPC were treated with a DNA vaccine encoding PAP alone for 12 weeks, followed by pembrolizumab over the subsequent 12 weeks, or were treated with both agents for 12 weeks (17). Sera was assessed for kynurenine and tryptophan concentrations at baseline and at 12 and 24 weeks, effectively permitting an analysis of changes in IDO activity following treatment with vaccine alone, pembrolizumab alone, or the combination. […] IFNγ concentration was also directly evaluated in sera samples.

| Compound | detection of PAP-specific IFNγ-secreting cells by ELISPOT [1] | effect on T-cell activation in vitro (T-cell activation) | median kyn:trp ratio post-treatment (IDO activity; after 12 weeks of treatment) | median kyn:trp ratio pre-treatment (IDO activity; before the 12-week treatment period) |
| --- | --- | --- | --- | --- |
| IDO enzyme: indoleamine 2,3 dioxygenase enzyme added to the PBMC cultures | tended to suppress |  |  |  |
| Cn1cc(C[C@H](N)C(=O)O)c2ccccc21 [1-methyltryptophan] | increased the detection of IFNγ-secreting PAP-specific cells | enhance T-cell activation in vitro |  |  |
| pembrolizumab |  |  | 0.066 | 0.061 |
